# Reference: paper PMC9379584 (iScience, 2022)
# Where “and” joins values, the source holds several entries; their conditions need not be identical. Identical values can stand only once. Entries after “also recorded” stand apart in the source; their conditions may differ. Like-named read-outs stand apart in the source and are kept apart here.
# How the values were obtained:
# [1] = test system: INS-1E cells; test: HTRF cAMP assay in INS-1E cells; type: cell-based, rat; settings: for Emax, inhibition of cAMP production: normalized to DA's efficacy in parental INS-1E
# [2] = target: T1, α2A-AR (Rattus norvegicus, UniProt P22909); test: cell-based; settings: HEK-293T
# T1 sequence (P22909 1-465): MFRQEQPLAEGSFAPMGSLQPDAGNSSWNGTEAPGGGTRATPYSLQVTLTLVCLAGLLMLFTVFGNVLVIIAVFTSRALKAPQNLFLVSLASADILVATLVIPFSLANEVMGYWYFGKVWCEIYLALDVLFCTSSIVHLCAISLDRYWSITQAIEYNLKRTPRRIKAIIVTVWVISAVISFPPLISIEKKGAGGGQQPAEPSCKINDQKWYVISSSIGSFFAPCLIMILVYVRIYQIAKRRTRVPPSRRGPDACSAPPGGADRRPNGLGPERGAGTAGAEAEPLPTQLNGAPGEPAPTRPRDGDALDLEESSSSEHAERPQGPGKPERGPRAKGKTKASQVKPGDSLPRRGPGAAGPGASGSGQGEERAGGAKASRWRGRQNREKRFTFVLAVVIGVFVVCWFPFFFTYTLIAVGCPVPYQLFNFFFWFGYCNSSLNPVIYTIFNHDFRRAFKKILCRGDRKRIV
# [3] = target: T1, α2A-AR; type: cell-based; settings: nanoBRET
# [4] = test system: α2A-AR KO INS-1E-derived cell line; test: HTRF cAMP assay in α2A-AR KO INS-1E-derived cells; type: cell-based, rat
# [5] = test system: INS-1E cells; test: Glucose-stimulated insulin secretion; type: cell-based, rat
# [6] = test system: β1-AR; settings: ref Millan et al., 2002; cited from earlier work
# [7] = target: T2, D2R (Homo sapiens, UniProt P14416); settings: nanoBRET
# Target sequence in this assay (P14416 whole entry): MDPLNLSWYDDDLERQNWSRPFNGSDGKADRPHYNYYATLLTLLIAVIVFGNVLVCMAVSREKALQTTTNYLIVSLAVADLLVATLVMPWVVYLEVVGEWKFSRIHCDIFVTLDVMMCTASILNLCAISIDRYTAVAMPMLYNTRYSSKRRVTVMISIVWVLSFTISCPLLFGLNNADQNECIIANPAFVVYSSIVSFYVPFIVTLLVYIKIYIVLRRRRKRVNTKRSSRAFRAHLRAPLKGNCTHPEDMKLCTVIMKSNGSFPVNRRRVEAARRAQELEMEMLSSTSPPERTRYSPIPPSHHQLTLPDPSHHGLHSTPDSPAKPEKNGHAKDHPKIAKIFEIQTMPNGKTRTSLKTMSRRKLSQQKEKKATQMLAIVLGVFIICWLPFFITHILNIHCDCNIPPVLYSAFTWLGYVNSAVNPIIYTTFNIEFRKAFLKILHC
# [8] = test system: human islets; test: Glucagon secretion from human islets; type: cell-based; settings: 25 mM glucose, 1 h
# [9] = target: T2, D2R; test: Radioligand competition binding, [3H]-N-methylspiperone, HEK-293 membranes
# Target sequence in this assay (P14416 whole entry): as above
# [10] = target: T1, α2A-AR; type: cell-based; settings: nanoBRET; remark: listed apart in the source
# [11] = target: T2, D2R; test: cell-based; settings: for EC50: nanoBRET; for Emax: HEK-293T
# Target sequence in this assay (P14416 whole entry): as above
# [12] = target: T2, D2R
# Target sequence in this assay (P14416 whole entry): as above
# [13] = test system: mouse pancreatic islets; test: Glucose-stimulated insulin secretion; type: cell-based; settings: for IC50: Mus musculus, Pancreatic islet, 1.5 h
# [14] = test system: human islets; test: Insulin secretion from human islets; type: cell-based; settings: 10 pM and 100 pM, versus vehicle
# [15] = test system: α2A-AR; test: α2A-AR internalization; type: cell-based; settings: data not shown
# [16] = target: T2, D2R; test: cell-based
# Target sequence in this assay (P14416 whole entry): as above
# Target sequence in this assay (P32121 whole entry partner): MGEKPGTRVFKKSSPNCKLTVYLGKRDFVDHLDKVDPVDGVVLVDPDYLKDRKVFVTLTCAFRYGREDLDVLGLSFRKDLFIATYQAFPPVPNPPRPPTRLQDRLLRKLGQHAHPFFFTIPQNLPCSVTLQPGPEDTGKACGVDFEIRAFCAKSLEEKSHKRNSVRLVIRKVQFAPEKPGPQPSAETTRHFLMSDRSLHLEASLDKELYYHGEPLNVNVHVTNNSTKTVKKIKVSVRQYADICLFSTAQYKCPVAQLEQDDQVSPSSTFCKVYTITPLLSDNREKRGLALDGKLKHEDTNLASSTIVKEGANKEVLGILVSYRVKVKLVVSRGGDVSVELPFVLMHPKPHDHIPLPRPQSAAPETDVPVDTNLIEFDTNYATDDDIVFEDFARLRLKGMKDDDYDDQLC
# [17] = test system: α2A-AR KO INS-1E-derived cell line; test: GSIS in α2A-AR knockout INS-1E-derived cell line; type: cell-based, rat
# [18] = test system: mouse islets; test: Glucagon secretion from mouse islets; type: cell-based; settings: 25 mM glucose, 1 h
# [19] = target: T2, D2R; settings: cited from earlier work
# Target sequence in this assay (P14416 whole entry): as the sequence (P14416 whole entry) above
# Target sequence in this assay (P32121 whole entry partner): as the sequence (P32121 whole entry partner) above
# [20] = EC50, Gαi2 recruitment to D2R, Gαi2
# [21] = EC50, Gαi3 recruitment to D2R, Gαi3
# [22] = EC50, GαoA recruitment to D2R, GαoA
# [23] = percentage of recruitment relative to DA
smiles,measurement,setting,value
CC(C)C[C@H]1C(=O)N2CCC[C@H]2[C@]2(O)O[C@](NC(=O)[C@@H]3C=C4c5cccc6[nH]c(Br)c(c56)C[C@H]4N(C)C3)(C(C)C)C(=O)N12 [Bromocriptine],"Emax, inhibition of cAMP production",[1],35.10 [33.09–38.47] % DA
same,"Emax, inhibition of cAMP production",[1]; listed as bromocriptine,35.1 % DA
same,IC50,"[1]; read-out: IC50, inhibition of cAMP production, forskolin 5 μM, 1 h",10.3 nM
same,Emax,"[2]; read-out: Emax, Gαi1 recruitment to α2A-AR",15.4%
same,Emax,"[2]; read-out: Emax, Gαi2 recruitment to α2A-AR",43.8%
same,Emax,"[2]; read-out: Emax, Gαi3 recruitment to α2A-AR",12.7%
same,Emax,"[2]; read-out: Emax, GαoA recruitment to α2A-AR",43%
same,Emax,"[2]; read-out: Emax, GαoB recruitment to α2A-AR",40.3%
same,Emax,"[2]; read-out: Emax, Gαz recruitment to α2A-AR",21.2%
same,β-arrestin2 recruitment to α2A-AR,[3],does not result in measurable recruitment; also recorded: Neither bromocriptine nor DA stimulation of α2A-AR caused significant β-arrestin2 receptor recruitment
same,loss of potency in decreasing cAMP by α2-AR KO,[4]; KO versus unmodified cells,~120 fold
same,IC50,"[4]; read-out: IC50, inhibition of cAMP production, α2A-AR KO",1200 nM
same,"Emax, inhibition of cAMP production","[4]; α2A-AR KO, normalized to DA's efficacy in parental INS-1E",56.28 [5.32–107.26] % DA
same,decrease of efficacy at reducing GSIS versus bromocriptine alone,[5]; co-treatment with sulpiride (100 nM),66.7%
same,reduction of efficacy of GSIS inhibition versus bromocriptine alone,[5]; co-treatment with yohimbine (100 nM),66.5%
same,IC50,"[5]; read-out: IC50, inhibition of GSIS, INS-1E, 20 mM glucose, 90 min",14 nM
same,"affinity for β1-AR, lower compared with D2R",[6],~120 fold
same,β-arrestin1 recruitment to D2R,[7],negligible recruitment
same,decrease in secreted glucagon,[8]; 10 pM,30.8%
same,decrease in secreted glucagon,[8]; 100 pM,36.7%
same,Ki,[9],43.2 nM
same,β-arrestin1 recruitment to α2A-AR,[10],negligible recruitment
same,EC50,"[11]; EC50, Gαi1 recruitment to D2R, Gαi1",104 nM
same,EC50,[11]; [20],21.6 nM
same,EC50,[11]; [21],84.3 nM
same,EC50,[11]; [22],0.0767 nM and 0.08 nM
same,EC50,"[11]; EC50, Gαz recruitment to D2R, Gαz",4.3 nM
same,Emax,"[11]; read-out: Emax, Gαi2 recruitment to D2R, percentage of recruitment relative to DA",89.3%
same,Emax,"[11]; read-out: Emax, GαoA recruitment to D2R, percentage of recruitment relative to DA",109%
same,Emax,"[11]; read-out: Emax, GαoB recruitment to D2R, percentage of recruitment relative to DA",96.1%
same,Emax,"[11]; read-out: Emax, Gαz recruitment to D2R, percentage of recruitment relative to DA",66.5%
same,EC50,"[11]; pEC50, GαoA recruitment to D2R, GαoA",0.0759 nM
same,EC50,"[11]; pEC50, GαoB recruitment to D2R, GαoB",0.269 nM
same,"higher potency than DA, Gαi1 recruitment to D2R",[12]; EC50 ratio versus DA,4.5 fold
same,"higher potency than NE, Gαi1 recruitment to D2R",[12]; EC50 ratio versus NE,47.2 fold
same,"Emax, Gαi1 recruitment to D2R",[12]; [23],60.03 [46.83–73.23] %
same,"Emax, GαoA recruitment to D2R",[12]; [23],109.13 [71.26–147.01] %
same,"Emax, GαoB recruitment to D2R",[12]; [23],96.05 [65.07–127.03] %
same,"Emax, Gαz recruitment to D2R",[12]; [23],66.51 [20.68–112.34] %
same,IC50,"[13]; read-out: IC50, inhibition of GSIS",15.8 nM
same,IC50,"[13]; read-out: pIC50, inhibition of GSIS (converted)",15.8 nM
same,effect on insulin secretion,"[13]; mouse islets, picomolar concentrations",insufficient to modify insulin secretion
same,effect on insulin secretion,[14],not significantly altered; also recorded: did not significantly alter
same,internalization of α2A-AR following stimulation,[15],no detectable internalization
same,EC50,[16],286 nM
same,Emax,"[16]; read-out: Emax, β-arrestin2 recruitment to D2R",60.9%
same,IC50,"[17]; read-out: IC50, inhibition of GSIS, α2A-AR KO INS-1E-derived cells",6.67 nM
same,reduction of efficacy of GSIS inhibition versus parental INS-1E cells,[17]; α2A-AR KO,80.6%
same,decrease in secreted glucagon,[18]; 10 pM,26.7%
same,decrease in secreted glucagon,[18]; 100 pM,29.7%
"NC[C@H](O)c1ccc(O)c(O)c1 [NE, norepinephrine]",β-arrestin1 recruitment to D2R,[7],negligible recruitment
same,"pEC50, β-arrestin2 recruitment to D2R",[19],4.78 (16745.32) [3.62–5.93]
same,β-arrestin1 recruitment to α2A-AR,[10],negligible recruitment
same,EC50,[11]; [20],25.3 nM
same,EC50,[11]; [21],32600 nM
same,EC50,[11]; [22],3350 nM
same,EC50,"[11]; EC50, GαoB recruitment to D2R, GαoB",139 nM
